In US20220378923A1, “BET DEGRADER” (KYOWA KIRIN CO., LTD., priority 2019, published 2022):
Counter-ions that a name gives are not always drawn.

Test system: MYC mRNA expression in SU-DHL-4 cells
Assay: Suppressive effect on MYC mRNA expression (Test Example 2)
Type: cell-based, human
Settings: Homo sapiens, test compound 100 nmol/L, 6 hours, qRT-PCR corrected by ACTB, GAPDH, HPRT1, read-out: Suppression Rate of MYC mRNA Expression (%)
Procedure: The cells were passaged twice a week at a volume of 20-40 mL so as to maintain a cell concentration of 1×10^6 cells/mL or less. The cultured SU-DHL-4 cells were seeded at 6×10^5 cells/well in a transparent 6-well plate (Code No. 140675, Thermo Fisher Scientific). After seeding, the cells were precultured at 37° C. in a carbon dioxide gas incubator for 18 to 25 hours. […] At this time, the final concentration of DMSO was adjusted to be 0.1 vol %. After adding the test compound, the cells were cultured at 37° C. in a carbon dioxide gas incubator for 6 hours. Then, the cells were collected by centrifugation and used for extraction of mRNA. mRNA extraction from cells was performed using Maxwell® 16 LEV simplyRNA Purification Kits (Code No. AS1270, Promega). The mRNA recovery protocol was performed according to the manufacturer's recommended protocol attached to the kit. […] The cDNA conversion was performed, according to the manufacturer's recommended protocol attached to the kit, in 0.020 mL of the reaction solution, and GeneAmp® PCR System 9700 (Applied Biosystems) was used. The cDNA-converted sample was diluted 10-fold by adding 0.180 mL of RNase Free Water (Code No. 10977-023, Thermo Fisher Scientific) and used for quantitative real-time polymerase chain reaction (qRT-PCR). For the calibration curve of qRT-PCR, 0.08 mL of RNase Free Water was added to a cDNA sample using DMSO as a test compound for 5-fold dilution. Further, two 5-fold dilutions were prepared stepwise, and these three samples were used as the calibration curve samples. The following reagents were used for qRT-PCR: TaqMan Gene Expression Assays, Inventoried (Primer probe: Code No. 4331182, Thermo Fisher Scientific, Assay ID: (i) MYC: Hs00153408_m1, (ii) ACTB: Hs01060665_g1, (iii) GAPDH: Hs04420697_g1, (iv) HPRT1: […] Universal PCR Master Mix, no AmpEraseR UNG (Master Mix: Code No. 4367846, Thermo Fisher Scientific). Primer probe (0.001 mL), Master Mix (0.010 mL), water (0.004 mL) and the diluted cDNA sample (0.005 mL) were mixed, and qRT-PCR analysis was performed. For qRT-PCR analysis, QuantStudio 7 Flex (Thermo Fisher Scientific) or 7500 Fast Real-Time PCR (Applied Biosystems) was used to measure in Fast mode and analyze. […] Corrected MYC expression=A/B • A: MYC expression level • B: Geometric mean of expression levels of ACTB, GAPDH and HPRT1 Using the corrected values, the suppression rate of MYC expression for the wells to which the test compound was not added was calculated by the following formula. […] Corrected MYC expression level in a well containing test compound • D: Corrected MYC expression level in a well to which test compound was not added

Row | SMILES | inhibition at 0.1 µM [%]
1 | CCC(=O)N1c2ccccc2[C@H](Nc2ccc(NC(=O)[C@H](C)NC(=O)c3ccc(N[C@@H]4C[C@H](C)N(C(=O)CC)c5ccccc54)cc3)cc2)C[C@@H]1C (relative stereo) [Compound 2d, 4-{[(2S,4R)-2-Methyl-1-propionyl-1,2,3,4-tetrahydroquinolin-4-yl]amino}-N-{(S)-1-[(4-{[(2S*,4R*)-2-methyl-1-propionyl-1,2,3,4-tetrahydroquinolin-4-yl]amino}phenyl)amino]-1-oxopropan-2-yl}benzamide] | 80
2 | CCC(=O)N1c2ccccc2[C@H](Nc2ccc(NC(=O)CNC(=O)C(F)=C3CCC(N[C@@H]4C[C@H](C)N(C(=O)CC)c5ccccc54)CC3)cc2)C[C@@H]1C (relative stereo) [Compound 15k, 2-Fluoro-2-(4-(((2S*,4R*)-2-methyl-1-propionyl-1,2,3,4-tetrahydroquinolin-4-yl)amino)cyclohexylidene)-N-(2-((4-(((2S,4R)-2-methyl-1-propionyl-1,2,3,4-tetrahydroquinolin-4-yl)amino)phenyl)amino)-2-oxoethyl)acetamide] | 97.4

Same assay, conditions: test compound 100 nmol/L, 6 hours, qRT-PCR corrected by ACTB, GAPDH, HPRT1

Row | SMILES | Suppression Rate of MYC mRNA Expression (%)
3 | CCC(=O)N1c2ccccc2[C@H](Nc2ccc(CCC(=O)NCC3(NC4CCC(N[C@@H]5C[C@H](C)N(C(=O)CC)c6ccccc65)CC4)COC3)cc2)C[C@@H]1C (some centres unmarked) [Compound 7h] | 97.5

Test system: SU-DHL-4 cells
Assay: Inhibitory effect on cell viability in SU-DHL-4 cell line (Test Example 1)
Type: cell-based, human
Settings: Homo sapiens; SU-DHL-4 cells, 72 hours, Cell Counting Kit-8; concentration showing 90% inhibition of cell viability; read-out: SU-DHL-4 Cell Viability Inhibition Rate IC90
Method in brief: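 SU-DHL-4 cells were grown at 37° C. under 5% CO2 in RPMI1640 with 10 vol % heat-inactivated FBS plus penicillin/streptomycin, seeded and precultured for 18 to 25 hours, then exposed to test compound at 0.1 vol % DMSO for 72 hours. Viability was read with Cell Counting Kit-8 by absorbance at 450 nm.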

Row | SMILES | IC90 [nM]
4 | CCC(=O)N1c2ccccc2[C@H](Nc2ccc(NC(=O)CCCC(=O)NC34CCC(NCc5cc(O)cc(-c6c(C)noc6C)c5)(CC3)CC4)cc2)C[C@@H]1C [Compound 17c, N^1-(4-((3-(3,5-Dimethylisoxazol-4-yl)-5-hydroxybenzyl)amino)bicyclo[2.2.2]octan-1-yl)-N5-(4-(((2S,4R)-2-methyl-1-propionyl-1,2,3,4-tetrahydroquinolin-4-yl)amino)phenyl)glutaramide] | 2.05
5 | CCC(=O)N1c2ccccc2[C@H](Nc2ccc(-n3cc(CNC(=O)c4cccc(Oc5ccccc5-c5cn(C)c(=O)cc5OC)c4)nn3)cc2)C[C@@H]1C [Compound 17d, 3-(2-(4-Methoxy-1-methyl-6-oxo-1,6-dihydropyridin-3-yl)phenoxy)-N-((1-(4-(((2S,4R)-2-methyl-1-propionyl-1,2,3,4-tetrahydroquinolin-4-yl)amino)phenyl)-1H-1,2,3-triazol-4-yl)methyl)benzamide] | 0.13
6 | CCC(=O)N1c2ccccc2[C@H](Nc2ccc(CNCc3cn(-c4ccc(N[C@@H]5C[C@H](C)N(C(=O)CC)c6ccccc65)nc4)nn3)cc2)C[C@@H]1C [Compound 17e, 1-((2S,4R)-2-Methyl-4-((4-((((1-(6-(((2S,4R)-2-methyl-1-propionyl-1,2,3,4-tetrahydroquinolin-4-yl)amino)pyridin-3-yl)-1H-1,2,3-triazol-4-yl)methyl)amino)methyl)phenyl)amino)-3,4-dihydroquinolin-1(2H)-yl)propan-1-one] | 1.82
7 | CCC(=O)N1c2ccccc2[C@H](Nc2ccc(-c3cnn(CCNC(=O)C4CCN(Cc5cc(O)cc(-c6c(C)noc6C)c5)CC4)c3)cc2)C[C@@H]1C [Compound 17i, 1-(3-(3,5-Dimethylisoxazol-4-yl)-5-hydroxybenzyl)-N-(2-(4-(4-(((2S,4R)-2-methyl-1-propionyl-1,2,3,4-tetrahydroquinolin-4-yl)amino)phenyl)-1H-pyrazol-1-yl)ethyl)piperidine-4-carboxamide] | 1.45
8 | CCC(=O)N1c2ccccc2[C@H](Nc2ccc(NC(=O)NCC(=O)NC3CCN(Cc4cc(O)cc(-c5c(C)noc5C)c4)CC3)cc2)C[C@@H]1C [Compound 17j, N-(1-(3-(3,5-Dimethylisoxazol-4-yl)-5-hydroxybenzyl)piperidin-4-yl)-2-(3-(4-(((2S,4R)-2-methyl-1-propionyl-1,2,3,4-tetrahydroquinolin-4-yl)amino)phenyl)ureido)acetamide] | 29
9 | CCC(=O)N1c2ccccc2[C@H](Nc2ccc(NC(=O)CNC(=O)NC3CCN(Cc4cc(O)cc(-c5c(C)noc5C)c4)CC3)cc2)C[C@@H]1C [Compound 17k, 2-(3-(1-(3-(3,5-Dimethylisoxazol-4-yl)-5-hydroxybenzyl)piperidin-4-yl)ureido)-N-(4-(((2S,4R)-2-methyl-1-propionyl-1,2,3,4-tetrahydroquinolin-4-yl)amino)phenyl)acetamide] | 43.7
10 | CCC(=O)N1c2ccccc2[C@H](Nc2ccc(-n3cc(CCNC(=O)C4CCN(Cc5cc(O)cc(-c6c(C)noc6C)c5)CC4)nn3)cc2)C[C@@H]1C [Compound 17l, 1-(3-(3,5-Dimethylisoxazol-4-yl)-5-hydroxybenzyl)-N-(2-(1-(4-(((2S,4R)-2-methyl-1-propionyl-1,2,3,4-tetrahydroquinolin-4-yl)amino)phenyl)-1H-1,2,3-triazol-4-yl)ethyl)piperidine-4-carboxamide formate] | 1.89
11 | CCC(=O)N1c2ccccc2[C@H](Nc2ccc(C(=O)NCc3nnc(C4CCN(Cc5cc(O)cc(-c6c(C)noc6C)c5)CC4)o3)cc2)C[C@@H]1C [Compound 17m, N-((5-(1-(3-(3,5-Dimethylisoxazol-4-yl)-5-hydroxybenzyl)piperidin-4-yl)-1,3,4-oxadiazol-2-yl)methyl)-4-(((2S,4R)-2-methyl-1-propionyl-1,2,3,4-tetrahydroquinolin-4-yl)amino)benzamide] | 74.1
12 | CCC(=O)N1c2ccccc2[C@H](Nc2ccc(NC(=O)C3CN(C(=O)c4ccc(C5CCN(c6ccc7nnc(Cl)n7n6)CC5)cc4)C3)cc2)C[C@@H]1C [Compound 17p, 1-(4-(1-(3-Chloro-[1,2,4]triazolo[4,3-b]pyridazin-6-yl)piperidin-4-yl)benzoyl)-N-(4-(((2S,4R)-2-methyl-1-propionyl-1,2,3,4-tetrahydroquinolin-4-yl)amino)phenyl)azetidine-3-carboxamide] | 0.35

Same assay, conditions: SU-DHL-4 cells, 72 hours, Cell Counting Kit-8; concentration showing 90% inhibition of cell viability; read-out: SU-DHL-4 Cell Viability Inhibition Rate IC90

Row | SMILES | IC90 [nM]
13 | CCC(=O)N1c2ccccc2[C@H](Nc2ccc(CCC(=O)NCC3(NC4CCC(N[C@@H]5C[C@H](C)N(C(=O)CC)c6ccccc65)CC4)COC3)cc2)C[C@@H]1C (some centres unmarked) [Compound 7h] | 5.47
14 | CCC(=O)N1c2ccccc2[C@H](Nc2ccc(NC(=O)CCCC(=O)NC3CCC(Cn4c(CC)cc5c4CCCC5=O)CC3)cc2)C[C@@H]1C (stereo partly drawn) [Compound 17b, N^1-((1r,4r)-4-((2-Ethyl-4-oxo-4,5,6,7-tetrahydro-1H-indol-1-yl)methyl)cyclohexyl)-N5-(4-(((2S,4R)-2-methyl-1-propionyl-1,2,3,4-tetrahydroquinolin-4-yl)amino)phenyl)glutaramide] | 1.74
